From ChEMBL document CHEMBL5338815 (J Med Chem, 2023)

How the values were obtained:
[1] = target: Histone-lysine N-methyltransferase 2A (Homo sapiens, UniProt Q03164); test: Inhibition of MLL1 (unknown origin)
[2] = Toxicity in Balb/c mouse xenografted with human PANC-1 cells assessed as body weight change at 2 mg/kg, ip treated for 22 days relative to control; format: organism-based; conditions: in vivo, 528 h, time 22 day
[3] = AUC (0 to t) in ICR mouse at 2 mg/kg, ip measured upto 24 hrs by LC-MS/MS analysis; format: ADME, organism-based; design: dose 2 mg/kg, time < 24 hrs, route ip; conditions: in vivo
[4] = target: T1, Histone-arginine methyltransferase CARM1 (Homo sapiens, UniProt Q86X55); test: Inhibition of PRMT4 (unknown origin)
T1 sequence (Q86X55 whole entry): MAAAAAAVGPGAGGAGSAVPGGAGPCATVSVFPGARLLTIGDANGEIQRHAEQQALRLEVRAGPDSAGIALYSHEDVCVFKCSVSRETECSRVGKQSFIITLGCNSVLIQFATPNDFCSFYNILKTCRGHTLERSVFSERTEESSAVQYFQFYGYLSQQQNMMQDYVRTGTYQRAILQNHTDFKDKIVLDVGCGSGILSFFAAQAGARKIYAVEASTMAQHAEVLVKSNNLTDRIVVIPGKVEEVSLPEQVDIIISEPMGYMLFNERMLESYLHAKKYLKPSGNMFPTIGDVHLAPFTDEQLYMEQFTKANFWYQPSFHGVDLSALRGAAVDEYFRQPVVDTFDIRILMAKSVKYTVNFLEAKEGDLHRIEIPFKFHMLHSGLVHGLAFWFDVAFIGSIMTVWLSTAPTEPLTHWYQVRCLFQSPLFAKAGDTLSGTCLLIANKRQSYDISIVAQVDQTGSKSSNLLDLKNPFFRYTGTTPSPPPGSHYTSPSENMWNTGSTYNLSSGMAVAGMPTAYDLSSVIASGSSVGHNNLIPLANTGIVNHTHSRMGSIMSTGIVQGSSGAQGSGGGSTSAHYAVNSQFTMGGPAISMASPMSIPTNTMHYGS

[5] = target: T2, Histone-lysine N-methyltransferase EHMT1 (Homo sapiens) (UniProt Q9H9B1); test: Covalent inhibition of recombinant GLP (unknown origin) assessed as adduct formation intensity by mass spectrometric analysis; conditions: time <= 16.0 hrs, TDE = time-dependent effect
T2 sequence (whole entry): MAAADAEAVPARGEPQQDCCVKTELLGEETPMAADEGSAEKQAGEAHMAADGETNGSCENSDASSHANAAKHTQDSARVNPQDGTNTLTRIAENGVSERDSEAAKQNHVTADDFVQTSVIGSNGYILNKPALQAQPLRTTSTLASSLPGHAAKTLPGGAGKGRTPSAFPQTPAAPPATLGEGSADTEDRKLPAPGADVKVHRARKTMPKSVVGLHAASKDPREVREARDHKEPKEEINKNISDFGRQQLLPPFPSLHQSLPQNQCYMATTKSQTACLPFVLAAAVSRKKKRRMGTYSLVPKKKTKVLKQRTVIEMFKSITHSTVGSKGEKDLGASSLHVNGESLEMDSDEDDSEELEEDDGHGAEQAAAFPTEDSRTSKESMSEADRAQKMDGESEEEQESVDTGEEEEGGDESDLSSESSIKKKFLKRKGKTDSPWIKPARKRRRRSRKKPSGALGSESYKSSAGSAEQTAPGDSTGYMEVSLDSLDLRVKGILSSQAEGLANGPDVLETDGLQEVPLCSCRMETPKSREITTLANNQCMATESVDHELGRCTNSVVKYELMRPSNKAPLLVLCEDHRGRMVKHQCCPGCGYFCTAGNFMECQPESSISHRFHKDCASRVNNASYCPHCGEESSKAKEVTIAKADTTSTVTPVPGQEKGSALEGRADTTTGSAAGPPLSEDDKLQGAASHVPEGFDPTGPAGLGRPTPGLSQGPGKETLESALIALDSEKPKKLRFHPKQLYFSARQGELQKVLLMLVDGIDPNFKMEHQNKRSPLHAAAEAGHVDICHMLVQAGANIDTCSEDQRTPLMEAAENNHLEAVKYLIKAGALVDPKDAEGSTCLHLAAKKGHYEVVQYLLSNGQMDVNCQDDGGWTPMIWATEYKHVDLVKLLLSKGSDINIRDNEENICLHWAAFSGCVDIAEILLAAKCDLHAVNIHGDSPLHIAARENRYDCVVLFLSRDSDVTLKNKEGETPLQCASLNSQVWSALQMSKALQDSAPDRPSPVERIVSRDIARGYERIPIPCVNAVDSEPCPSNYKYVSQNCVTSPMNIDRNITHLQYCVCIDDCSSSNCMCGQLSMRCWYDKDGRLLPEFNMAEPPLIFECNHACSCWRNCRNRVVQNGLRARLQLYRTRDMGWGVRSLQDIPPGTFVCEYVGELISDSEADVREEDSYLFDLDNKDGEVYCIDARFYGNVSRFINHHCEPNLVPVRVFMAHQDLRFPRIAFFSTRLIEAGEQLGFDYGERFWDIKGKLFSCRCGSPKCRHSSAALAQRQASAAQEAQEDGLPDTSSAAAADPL

Histone-lysine N-methyltransferase 2A, sequence (Q03164 1-2718 limits assumed): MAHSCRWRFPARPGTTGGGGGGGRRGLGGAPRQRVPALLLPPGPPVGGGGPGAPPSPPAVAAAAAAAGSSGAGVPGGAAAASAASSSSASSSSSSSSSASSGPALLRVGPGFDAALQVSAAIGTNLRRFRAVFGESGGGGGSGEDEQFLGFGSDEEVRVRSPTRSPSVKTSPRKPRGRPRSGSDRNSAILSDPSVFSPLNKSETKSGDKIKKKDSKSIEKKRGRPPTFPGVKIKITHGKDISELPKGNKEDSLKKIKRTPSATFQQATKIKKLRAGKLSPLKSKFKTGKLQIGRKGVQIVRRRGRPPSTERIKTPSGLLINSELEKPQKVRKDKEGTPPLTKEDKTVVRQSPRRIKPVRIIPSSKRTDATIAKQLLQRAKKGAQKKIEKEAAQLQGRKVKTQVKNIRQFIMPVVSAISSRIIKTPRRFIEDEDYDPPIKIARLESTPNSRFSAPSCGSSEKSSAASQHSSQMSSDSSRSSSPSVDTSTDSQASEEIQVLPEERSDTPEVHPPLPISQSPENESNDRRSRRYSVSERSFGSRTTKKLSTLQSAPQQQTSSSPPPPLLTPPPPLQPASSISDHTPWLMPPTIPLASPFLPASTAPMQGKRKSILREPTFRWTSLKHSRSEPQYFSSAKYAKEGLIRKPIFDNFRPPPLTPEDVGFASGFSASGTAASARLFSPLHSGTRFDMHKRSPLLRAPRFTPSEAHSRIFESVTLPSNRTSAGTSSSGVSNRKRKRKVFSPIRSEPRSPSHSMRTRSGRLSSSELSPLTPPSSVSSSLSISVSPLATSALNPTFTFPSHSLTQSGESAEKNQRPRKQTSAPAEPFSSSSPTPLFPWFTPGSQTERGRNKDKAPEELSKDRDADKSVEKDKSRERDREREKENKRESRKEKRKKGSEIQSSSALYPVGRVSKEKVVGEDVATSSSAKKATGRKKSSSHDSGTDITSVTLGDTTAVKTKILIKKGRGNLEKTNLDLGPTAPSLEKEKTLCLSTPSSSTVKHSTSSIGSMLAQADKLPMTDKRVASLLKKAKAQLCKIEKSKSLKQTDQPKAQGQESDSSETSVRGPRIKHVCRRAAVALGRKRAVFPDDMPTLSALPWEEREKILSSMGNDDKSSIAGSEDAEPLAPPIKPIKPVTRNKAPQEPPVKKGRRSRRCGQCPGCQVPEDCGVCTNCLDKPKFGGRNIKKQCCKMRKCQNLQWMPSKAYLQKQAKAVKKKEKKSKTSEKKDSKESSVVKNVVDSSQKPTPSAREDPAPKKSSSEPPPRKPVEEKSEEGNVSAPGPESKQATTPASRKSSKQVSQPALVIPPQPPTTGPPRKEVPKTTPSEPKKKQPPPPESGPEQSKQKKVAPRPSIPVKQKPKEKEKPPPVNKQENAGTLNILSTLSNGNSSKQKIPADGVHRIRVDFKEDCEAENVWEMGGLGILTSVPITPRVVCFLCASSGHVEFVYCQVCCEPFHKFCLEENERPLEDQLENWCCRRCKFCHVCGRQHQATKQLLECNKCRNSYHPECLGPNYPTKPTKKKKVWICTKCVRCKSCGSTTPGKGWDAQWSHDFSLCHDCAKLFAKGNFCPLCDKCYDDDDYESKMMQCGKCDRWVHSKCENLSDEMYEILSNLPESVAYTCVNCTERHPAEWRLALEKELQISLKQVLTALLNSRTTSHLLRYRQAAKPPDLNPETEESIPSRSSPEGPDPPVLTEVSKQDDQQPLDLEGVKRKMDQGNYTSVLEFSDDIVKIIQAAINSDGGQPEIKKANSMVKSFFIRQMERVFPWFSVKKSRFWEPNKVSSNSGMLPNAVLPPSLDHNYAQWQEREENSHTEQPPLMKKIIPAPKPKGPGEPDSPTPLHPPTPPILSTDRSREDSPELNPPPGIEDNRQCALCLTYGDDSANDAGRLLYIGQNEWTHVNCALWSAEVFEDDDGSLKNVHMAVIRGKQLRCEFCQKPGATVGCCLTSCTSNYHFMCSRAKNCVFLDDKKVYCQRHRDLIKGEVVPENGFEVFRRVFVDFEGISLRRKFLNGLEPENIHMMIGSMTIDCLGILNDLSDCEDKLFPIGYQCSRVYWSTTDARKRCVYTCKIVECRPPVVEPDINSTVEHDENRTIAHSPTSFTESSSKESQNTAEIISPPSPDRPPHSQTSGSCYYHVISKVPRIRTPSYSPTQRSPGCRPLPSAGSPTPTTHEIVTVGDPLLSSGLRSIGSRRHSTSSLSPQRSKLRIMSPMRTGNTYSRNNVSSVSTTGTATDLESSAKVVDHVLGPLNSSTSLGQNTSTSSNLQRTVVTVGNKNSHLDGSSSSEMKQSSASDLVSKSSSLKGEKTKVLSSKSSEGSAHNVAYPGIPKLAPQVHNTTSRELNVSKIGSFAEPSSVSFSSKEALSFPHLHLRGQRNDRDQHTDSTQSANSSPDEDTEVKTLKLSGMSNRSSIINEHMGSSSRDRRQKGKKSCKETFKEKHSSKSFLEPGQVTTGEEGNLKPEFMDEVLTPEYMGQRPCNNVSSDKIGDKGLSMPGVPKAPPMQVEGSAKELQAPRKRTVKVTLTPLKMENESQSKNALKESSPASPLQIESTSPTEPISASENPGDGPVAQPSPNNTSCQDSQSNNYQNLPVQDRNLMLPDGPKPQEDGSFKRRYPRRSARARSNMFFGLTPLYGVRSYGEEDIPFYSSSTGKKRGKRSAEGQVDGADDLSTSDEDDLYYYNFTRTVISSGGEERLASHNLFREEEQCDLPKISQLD
Histone-lysine N-methyltransferase 2A, sequence (Q03164 2719-3969 limits assumed): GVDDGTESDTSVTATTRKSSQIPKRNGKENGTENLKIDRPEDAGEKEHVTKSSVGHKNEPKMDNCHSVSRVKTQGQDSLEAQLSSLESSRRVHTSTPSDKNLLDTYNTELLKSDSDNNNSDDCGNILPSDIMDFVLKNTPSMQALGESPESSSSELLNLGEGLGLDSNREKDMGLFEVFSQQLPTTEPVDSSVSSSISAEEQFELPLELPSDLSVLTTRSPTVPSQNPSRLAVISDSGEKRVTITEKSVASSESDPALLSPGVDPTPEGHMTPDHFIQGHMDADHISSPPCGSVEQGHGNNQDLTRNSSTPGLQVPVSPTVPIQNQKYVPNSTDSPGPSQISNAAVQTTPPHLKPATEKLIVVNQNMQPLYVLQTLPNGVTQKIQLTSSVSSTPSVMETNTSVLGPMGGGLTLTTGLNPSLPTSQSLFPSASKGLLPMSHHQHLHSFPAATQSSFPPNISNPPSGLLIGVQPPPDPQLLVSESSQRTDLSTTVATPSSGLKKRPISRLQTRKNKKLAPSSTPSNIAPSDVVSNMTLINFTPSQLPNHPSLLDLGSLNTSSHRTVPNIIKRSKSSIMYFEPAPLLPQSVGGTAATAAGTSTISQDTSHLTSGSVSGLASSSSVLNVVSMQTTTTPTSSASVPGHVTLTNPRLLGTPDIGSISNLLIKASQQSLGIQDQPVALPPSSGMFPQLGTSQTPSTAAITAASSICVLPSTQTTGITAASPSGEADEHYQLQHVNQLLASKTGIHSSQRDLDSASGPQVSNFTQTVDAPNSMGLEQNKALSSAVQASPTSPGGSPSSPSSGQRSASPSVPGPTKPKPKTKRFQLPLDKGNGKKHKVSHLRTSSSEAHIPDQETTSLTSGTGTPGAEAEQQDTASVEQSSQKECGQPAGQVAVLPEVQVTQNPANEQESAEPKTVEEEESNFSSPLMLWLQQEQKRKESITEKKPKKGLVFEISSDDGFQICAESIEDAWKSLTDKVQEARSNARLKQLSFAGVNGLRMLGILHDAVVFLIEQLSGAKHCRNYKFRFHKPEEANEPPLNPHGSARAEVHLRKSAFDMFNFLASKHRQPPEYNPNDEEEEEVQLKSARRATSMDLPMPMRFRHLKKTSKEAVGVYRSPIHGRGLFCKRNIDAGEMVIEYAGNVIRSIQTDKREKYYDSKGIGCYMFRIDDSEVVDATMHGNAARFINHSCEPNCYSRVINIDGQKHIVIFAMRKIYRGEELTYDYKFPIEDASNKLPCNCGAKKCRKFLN

- IC50 [1]: > 20 µM
- AUC(0-t) at 24 h [3]: 208 ng·h/mL
- IC50 [4]: 6.68 µM
- inhibition [5]: Tde
Structure (SMILES): C=CC(=O)N(C)c1nc(NC2CCN(C)CC2)c2cc(OC)c(OCCCN3CCCC3)cc2n1
- Activity [2]: Non-Toxic
